Assay results reported in patent US12180187B2, “1-phenyl-5-azinylpyrazolyl-3-oxyalkyl acids and their use for controlling unwanted plant growth” (BAYER AKTIENGESELLSCHAFT, priority 2019, dated 2024).

Legend:
[1] = system: DIGSA; test: Pre-emergence action at 320 g/ha against DIGSA; assay type: in vivo, Digitaria sanguinalis; conditions: visual scoring after about 3 weeks vs untreated controls
Procedure, shortened: (§1)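 Sow seeds, cover with soil, spray soil surface (WP/EC, 0.5% additive, 600 l/ha water), hold in greenhouse ~3 wk, then rate % activity visually against untreated controls.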

[2] = system: ECHCG; test: Post-emergence action at 320 g/ha against ECHCG; assay type: in vivo, Echinochloa crus-galli; conditions: dosage 320 g/ha, visual rating about 3 weeks after treatment vs untreated controls (100% = plants died)
Source text: (§2) Accordingly, the compounds of the invention have good herbicidal action against a broad spectrum of weed grasses and broad-leaved weeds and are therefore suitable for controlling unwanted vegetation by the post-emergence method. • b) Seeds of monocotyledonous and dicotyledonous weeds and crop plants are placed in sandy loam in plastic or organic planting pots, covered with soil and cultivated in a greenhouse under controlled growth conditions. 2 to 3 weeks after sowing, the test plants are treated at the one-leaf stage. The compounds of the invention, formulated in the form of wettable powders (WP) or as emulsion concentrates (EC), are then sprayed onto the green parts of the plants as aqueous suspension or emulsion with addition of 0.5% additive at a water application rate of 600 l/ha (converted). After the test plants have been kept in the greenhouse under optimum growth conditions for about 3 weeks, the activity of the preparations is rated visually in comparison to untreated controls. For example, 100% activity=the plants have died, 0% activity=like control plants. Tables 39 to 49 below show the effects of selected compounds of the general formula (I) according to Tables 1 and 2 on various harmful plants and at an application rate corresponding to 320 g/ha, which were obtained by the experimental procedure mentioned above.

[3] = system: ALOMY; test: Post-emergence action against ALOMY, 320 g/ha; assay type: in vivo, Alopecurus myosuroides; conditions: dosage 320 g/ha, visual rating about 3 weeks after treatment vs untreated controls (100% = plants died)
Procedure, shortened: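 Weeds were sown in sandy loam, grown in a greenhouse and sprayed at the one-leaf stage, 2 to 3 weeks after sowing, with WP or EC formulations as aqueous suspension or emulsion plus 0.5% additive at 600 l/ha water. Activity was rated visually after about 3 weeks against untreated controls (100% = plants dead, 0% = like control).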

[4] = system: ECHGC; test: Pre-emergence action at 320 g/ha against ECHGC; assay type: in vivo, Echinochloa crus-galli; conditions: visual scoring after about 3 weeks vs untreated controls
Procedure, shortened: as §1

[5] = system: AMARE; test: Pre-emergence action at 320 g/ha against AMARE; assay type: in vivo, Amaranthus retroflexus; conditions: visual scoring after about 3 weeks vs untreated controls
Procedure, shortened: as §1

[6] = system: POLCO; test: Post-emergence action at 320 g/ha against POLCO; assay type: in vivo, Fallopia convolvulus (Polygonum convolvulus); conditions: visual rating about 3 weeks after treatment vs untreated controls
Source text: as §2

[7] = system: DIGSA; test: Post-emergence action at 320 g/ha against DIGSA; assay type: in vivo, Digitaria sanguinalis; conditions: dosage 320 g/ha, visual rating about 3 weeks after treatment vs untreated controls (100% = plants died)
Source text: as §2

[8] = system: SETVI; test: Post-emergence action at 320 g/ha against SETVI; assay type: in vivo, Setaria viridis; conditions: visual rating about 3 weeks after treatment vs untreated controls
Source text: as §2

[9] = system: PHBPU; test: Post-emergence action at 320 g/ha against PHBPU; assay type: in vivo; conditions: visual rating about 3 weeks after treatment vs untreated controls
Source text: as §2

[10] = system: AMARE; test: Post-emergence action at 320 g/ha against AMARE; assay type: in vivo, Amaranthus retroflexus; conditions: visual rating about 3 weeks after treatment vs untreated controls
Source text: as §2

[11] = system: ABUTH; test: Post-emergence action at 320 g/ha against ABUTH; assay type: in vivo, Abutilon theophrasti; conditions: visual rating about 3 weeks after treatment vs untreated controls
Source text: as §2

[12] = system: LOLRI; test: Pre-emergence action at 320 g/ha against LOLRI; assay type: in vivo, Lolium rigidum; conditions: visual scoring after about 3 weeks vs untreated controls
Procedure, shortened: as §1

[13] = system: AVEFA; test: Pre-emergence action at 320 g/ha against AVEFA; assay type: in vivo; conditions: visual scoring after about 3 weeks vs untreated controls
Procedure, shortened: as §1

[14] = system: POLCO; test: Pre-emergence action at 320 g/ha against POLCO; assay type: in vivo, Fallopia convolvulus (Polygonum convolvulus); conditions: visual scoring after about 3 weeks vs untreated controls
Procedure, shortened: as §1

[15] = system: AVEFA; test: Post-emergence action at 320 g/ha against AVEFA; assay type: in vivo; conditions: visual rating about 3 weeks after treatment vs untreated controls
Source text: as §2

[16] = system: VIOTR; test: Pre-emergence action at 320 g/ha against VIOTR; assay type: in vivo, Viola tricolor; conditions: dosage 320 g/ha
Procedure, shortened: as §1

[17] = system: ALOMY; test: Pre-emergence action at 320 g/ha against ALOMY; assay type: in vivo, Alopecurus myosuroides; conditions: scored visually after about 3 weeks vs untreated controls (100% = plants have died)
Procedure, shortened: as §1

[18] = system: SETVI; test: Pre-emergence action at 320 g/ha against SETVI; assay type: in vivo, Setaria viridis; conditions: visual scoring after about 3 weeks vs untreated controls
Procedure, shortened: as §1

[19] = system: VIOTR; test: Post-emergence action at 320 g/ha against VIOTR; assay type: in vivo, Viola tricolor; conditions: visual rating about 3 weeks after treatment vs untreated controls
Source text: as §2

[20] = system: VERPE; test: Pre-emergence action at 320 g/ha against VERPE; assay type: in vivo, Veronica persica; conditions: visual scoring after about 3 weeks vs untreated controls
Procedure, shortened: as §1

[21] = system: MATIN; test: Pre-emergence action at 320 g/ha against MATIN; assay type: in vivo, Tripleurospermum inodorum (Matricaria inodora); conditions: visual scoring after about 3 weeks vs untreated controls
Procedure, shortened: as §1

[22] = system: ABUTH; test: Pre-emergence action at 320 g/ha against ABUTH; assay type: in vivo, Abutilon theophrasti; conditions: greenhouse, scored visually after about 3 weeks vs untreated controls, 100% = plants have died, 0% = like control plants
Source text: b) Seeds of monocotyledonous and dicotyledonous weed plants and crop plants are placed in plastic or organic planting pots and covered with soil. The compounds of the invention, formulated in the form of wettable powders (WP) or as emulsion concentrates (EC), are then applied onto the surface of the covering soil as aqueous suspension or emulsion with addition of 0.5% additive at a water application rate of 600 l/ha (converted). After the treatment, the pots are placed in a greenhouse and kept under good growth conditions for the trial plants. After about 3 weeks, the effect of the preparations is scored visually in comparison with untreated controls as percentages. For example, 100% activity=the plants have died, 0% activity=like control plants. Tables 13 to 26 below show the effects of selected compounds of the general formula (I) on various harmful plants and at an application rate corresponding to 320 g/ha, which were obtained by the experimental procedure mentioned above.

Structure (SMILES)	Pre-emergence action against DIGSA in % [1] [%]	Pre-emergence action against ECHGC in % [4] [%]	Pre-emergence action against AMARE in % [5] [%]	Pre-emergence action against LOLRI in % [12] [%]	Pre-emergence action against AVEFA in % [13] [%]	Pre-emergence action against POLCO in % [14] [%]	Pre-emergence action against VIOTR in % [16] [%]	Pre-emergence action at 320 g/ha against ALOMY in % [17] [%]	Pre-emergence action against SETVI in % [18] [%]	Pre-emergence action against VERPE in % [20] [%]	Pre-emergence action against MATIN in % [21] [%]	Pre-emergence action at 320 g/ha against ABUTH in % [22] [%]	also measured
CCOC(=O)COc1nn(-c2ccccc2F)c(-c2ccc(F)nc2)c1F [VII-034]	100	90	100	90	90	90	100	90	100	80			Post-emergence action at 320 g/ha against ECHCG in % [2]: 90%; Post-emergence action against ALOMY [3]: 90%; Post-emergence action against POLCO in % [6]: 80%; Post-emergence action at 320 g/ha against DIGSA in % [7]: 90%; Post-emergence action against SETVI in % [8]: 90%; Post-emergence action against PHBPU in % [9]: 90%; Post-emergence action against AMARE in % [10]: 80%; Post-emergence action against ABUTH in % [11]: 80%; Post-emergence action against AVEFA in % [15]: 90%; Post-emergence action against VIOTR in % [19]: 80%
CCOC(=O)[C@@H](C)Oc1nn(-c2ccccc2F)c(-c2cncc(F)c2)c1Br [VII-130]	100	90	100	100	90	100	100	100	100	100	100	90	
C[C@@H](Oc1nn(-c2cc(F)ccc2F)c(-c2cncc(F)c2)c1Br)C(=O)O [VII-137]		90	100	100	90	90	100	100	100	100	90	90	
